From ChEMBL document CHEMBL1151728 (J Med Chem, 2008)
Active and inactive are the calls of the source. No cut-off for these calls is given here.

What was measured:
Acetylcholinesterase = Acetylcholinesterase (Electrophorus electricus, UniProt O42275)
Description: Inhibition of Electric eel AChE

Butyrylcholinesterase = Butyrylcholinesterase (Equus caballus, UniProt Q9N1N9)
Description: Inhibition of BuChE from equine serum

Rattus norvegicus [1] = assay: Effect on scopolamine-induced memory impairment in iv dosed Wistar assessed as decrease in number of errors during exploration of the bait at the end of the eight-arm radial maze for 5 days; format: functional, organism-based
Rattus norvegicus [2] = assay: Effect on scopolamine-induced memory impairment in iv dosed Wistar rat assessed as decrease in time spent for exploration of the bait at the end of the eight-arm radial maze for 5 days; format: functional, organism-based
Rattus norvegicus [3] = species on record: Rattus norvegicus; assay: Hepatotoxicity in Wistar rat liver assessed as histopathological changes; format: toxicity, organism-based; settings: in vivo

Sequence of Butyrylcholinesterase (Q9N1N9 whole entry): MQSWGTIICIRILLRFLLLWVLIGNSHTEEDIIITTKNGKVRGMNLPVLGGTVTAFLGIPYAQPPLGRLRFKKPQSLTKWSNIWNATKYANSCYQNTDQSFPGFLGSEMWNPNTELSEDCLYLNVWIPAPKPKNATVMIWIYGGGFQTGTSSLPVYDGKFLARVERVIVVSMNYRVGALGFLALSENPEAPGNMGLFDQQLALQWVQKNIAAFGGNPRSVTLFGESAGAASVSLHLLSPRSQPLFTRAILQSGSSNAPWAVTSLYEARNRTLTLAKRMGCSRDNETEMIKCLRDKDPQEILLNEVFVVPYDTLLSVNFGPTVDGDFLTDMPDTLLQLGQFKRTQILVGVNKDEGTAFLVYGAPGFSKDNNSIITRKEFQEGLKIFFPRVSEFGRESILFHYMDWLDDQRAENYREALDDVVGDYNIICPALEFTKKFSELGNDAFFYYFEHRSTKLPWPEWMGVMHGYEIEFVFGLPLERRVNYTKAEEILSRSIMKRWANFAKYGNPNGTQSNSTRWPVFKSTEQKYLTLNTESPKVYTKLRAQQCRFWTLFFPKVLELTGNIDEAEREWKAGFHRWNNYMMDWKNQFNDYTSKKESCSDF
Sequence of Acetylcholinesterase (O42275 whole entry): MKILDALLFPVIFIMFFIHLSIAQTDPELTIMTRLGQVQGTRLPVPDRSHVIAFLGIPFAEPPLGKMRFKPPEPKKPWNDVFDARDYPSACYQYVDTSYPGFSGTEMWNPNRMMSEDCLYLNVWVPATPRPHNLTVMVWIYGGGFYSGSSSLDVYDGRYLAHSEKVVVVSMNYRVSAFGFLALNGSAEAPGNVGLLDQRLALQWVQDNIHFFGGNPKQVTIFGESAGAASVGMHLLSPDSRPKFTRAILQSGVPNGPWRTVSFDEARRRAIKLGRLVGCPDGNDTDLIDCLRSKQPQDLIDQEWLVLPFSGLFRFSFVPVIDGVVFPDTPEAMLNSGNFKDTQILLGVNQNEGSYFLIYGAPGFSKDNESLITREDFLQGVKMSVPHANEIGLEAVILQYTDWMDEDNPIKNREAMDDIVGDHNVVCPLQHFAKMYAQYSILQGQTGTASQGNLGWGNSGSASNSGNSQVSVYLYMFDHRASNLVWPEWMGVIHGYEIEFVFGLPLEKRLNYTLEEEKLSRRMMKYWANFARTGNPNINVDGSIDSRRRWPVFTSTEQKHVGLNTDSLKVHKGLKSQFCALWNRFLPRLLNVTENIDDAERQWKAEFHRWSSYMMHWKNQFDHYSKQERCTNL

Q: Which results are given for `O=[N+]([O-])OCCCNCCCCCCCCNc1c2c(nc3ccccc13)CCCC2`?
A: IC50 (Acetylcholinesterase): 17.1 nM; IC50 (Butyrylcholinesterase): 14.8 nM

Q: What does the source list for `CCCNCCCCNc1c2c(nc3ccccc13)CCCC2`?
A: IC50 (Acetylcholinesterase): 23.4 nM; Activity (Rattus norvegicus [1]): inactive; Activity (Rattus norvegicus [2]): inactive; IC50 (Butyrylcholinesterase): 7.2 nM

Q: `O=[N+]([O-])OCCCNCCCCCNc1c2c(nc3ccccc13)CCCC2` was tested. Which IC50 (Acetylcholinesterase) did it give?
A: Its IC50 is 15.4 nM.

Q: And the IC50 (Butyrylcholinesterase)?
A: Its IC50 is 14.3 nM.

Q: Which results are given for `O=[N+]([O-])OCCNCCCCCNc1c2c(nc3ccccc13)CCCC2`?
A: IC50 (Acetylcholinesterase): 21.6 nM; IC50 (Butyrylcholinesterase): 13.3 nM

Q: What does the source list for `O=[N+]([O-])OCCCNCCNc1c2c(nc3ccccc13)CCCC2`?
A: IC50 (Acetylcholinesterase): 13 nM; IC50 (Butyrylcholinesterase): 18.1 nM

Q: With `O=C(CO[N+](=O)[O-])NCCCNc1c2c(nc3ccccc13)CCCC2` as the molecule, how does the IC50 (Acetylcholinesterase) read?
A: Its IC50 is 28.2 nM.

Q: What about the Activity (Rattus norvegicus [1]) of the same molecule?
A: The Activity was “Active”.

Q: What about the Activity (Rattus norvegicus [2]) of the same molecule?
A: The Activity was “Active”.

Q: And the IC50 (Butyrylcholinesterase)?
A: The IC50 was 13.5 nM.

Q: `O=[N+]([O-])OCCCNCCCCNc1c2c(nc3ccccc13)CCCC2` was tested. Which IC50 (Acetylcholinesterase) did it give?
A: Its IC50 is 5.6 nM.

Q: What about the Activity (Rattus norvegicus [3]) of the same molecule?
A: The Activity was “Non-toxic”.

Q: What about the Activity (Rattus norvegicus [1]) of the same molecule?
A: Its Activity is “Active”.

Q: And the Activity (Rattus norvegicus [2])?
A: Its Activity is “Active”.

Q: What about the IC50 (Butyrylcholinesterase) of the same molecule?
A: Its IC50 is 9.9 nM.

Q: How did the IC50 (Acetylcholinesterase) turn out when `O=[N+]([O-])OCCNCCCCCCCCNc1c2c(nc3ccccc13)CCCC2` was run?
A: Its IC50 is 7.7 nM.

Q: What about the IC50 (Butyrylcholinesterase) of the same molecule?
A: The IC50 was 17 nM.

Q: What does the source list for `O=[N+]([O-])OCCNCCNc1c2c(nc3ccccc13)CCCC2`?
A: IC50 (Acetylcholinesterase): 9.1 nM; Activity (Rattus norvegicus [1]): Active; Activity (Rattus norvegicus [2]): Active; IC50 (Butyrylcholinesterase): 7.3 nM

Q: For `O=[N+]([O-])OCCCCCCNCCCCCCCCNc1c2c(nc3ccccc13)CCCC2`, which IC50 (Acetylcholinesterase) is on record?
A: The IC50 was 19.6 nM.

Q: And the IC50 (Butyrylcholinesterase)?
A: The IC50 was 12.9 nM.
